The values that follow come from PubChem BioAssay (NCI).

Among the test systems are P388/ADR leukemia; P388 leukemia; HOP-18 NSCLC; SN12K1 renal; SR leukemia; DU-145 prostate; MDA-MB-435; MDA-N; BT-549 breast; PC-3 prostate; HS 578T breast; LXFL 529 NSCLC; ACHN renal.
Common to all, as to experiment: NCI tumour cell line growth inhibition, 48 h

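Test compounds were applied to cells in 96-well plates for 48 hours at 5 doses. GI50 marks 50% less growth. TGI denotes the concentration required for complete inhibition of growth.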

On to `O=C1CNC(=O)N1`, for which the TGI in the experiment on P388/ADR leukemia was above 630 µM; in the experiment with P388 leukemia it was above 520 µM; with HOP-18 NSCLC it was above 1120 µM; in the experiment with SN12K1 renal it was above 1120 µM.
Regarding `COc1cc(CN(C)N2C(=O)c3cccc4cc([N+](=O)[O-])cc(c34)C2=O)cc(OC)c1OC`, the TGI with SR leukemia, in the experiment with DU-145 prostate, in the experiment with MDA-MB-435, in the experiment on MDA-N, with BT-549 breast and with PC-3 prostate was above 100 µM each time. Further, the TGI in the experiment on HS 578T breast is above 100 µM.
`CC1(C)CCCC2(C)[C@@H]1CC[C@]13C[C@](C)(CC[C@@H]21)[C@@H]3CO` (some centres undefined): the TGI with LXFL 529 NSCLC and in the experiment on ACHN renal was above 100 µM each time.
As to `Cc1ccc(NCCO)cc1`, the TGI in the experiment with SR leukemia, in the experiment on LXFL 529 NSCLC and in the experiment on ACHN renal was above 100 µM throughout.
With `O=C(NC/C=C/CO)c1ccccc1`, the TGI in the experiment on P388/ADR leukemia, in the experiment with P388 leukemia, with HOP-18 NSCLC and in the experiment with SN12K1 renal was above 100 µM each time.
Regarding `Fc1cc(C2=Nn3c(nnc3-c3cc(F)c(Cl)cc3Cl)SC2)c(Cl)cc1Cl`, the GI50 in the experiment on SR leukemia was 25.4 µM; with DU-145 prostate, 36.6 µM; in the experiment with MDA-MB-435, 27.8 µM; in the experiment with ACHN renal it was 26.6 µM; in the experiment on PC-3 prostate, 16.9 µM; in the experiment on HS 578T breast, 21.9 µM. Further, the TGI with SR leukemia was above 100 µM; with DU-145 prostate, above 100 µM; in the experiment with MDA-MB-435, 83.2 µM; in the experiment on ACHN renal, 90.9 µM; in the experiment on PC-3 prostate, above 100 µM; in the experiment on HS 578T breast, 55 µM.
In the case of `COc1ccc(-c2nnc3c4ccccc4sn23)cc1`, the TGI in the experiment with SR leukemia was above 100 µM; in the experiment with HOP-18 NSCLC, 83.9 µM; in the experiment with LXFL 529 NSCLC, above 100 µM; in the experiment with ACHN renal it was above 100 µM.
`O=c1n(Cc2ccccc2)c2ccccc2n1CC1CS1` (centres undefined): the TGI in the experiment on SR leukemia, in the experiment with LXFL 529 NSCLC and in the experiment with ACHN renal was above 100 µM throughout.
`Cc1cc(C)c(S(=O)(=O)N(CCCCCCN)OCCCON(CCCCCCN)S(=O)(=O)c2c(C)cc(C)cc2C)c(C)c1`: the TGI in the experiment with DU-145 prostate turned out to be 2.76 µM; with MDA-MB-435 it was 3.99 µM; with MDA-N it was 3.61 µM; with ACHN renal, 13.1 µM; in the experiment on BT-549 breast it was 3.26 µM; in the experiment on PC-3 prostate it was 3.15 µM. This compound yielded a TGI in the experiment on HS 578T breast of 4.32 µM.
Consider `COc1ccc2c(c1)C(=O)/C(=C/c1ccccc1)C2`, for which the TGI in the experiment on SR leukemia, in the experiment on DU-145 prostate, in the experiment with MDA-MB-435, with MDA-N, with BT-549 breast and with PC-3 prostate was above 100 µM each time. This compound also came in with a TGI with HS 578T breast above 100 µM.
In the case of `CC12CCC3C(CCC4(O)C=CCCC34C=O)C1(O)CC(O)C2c1ccc(=O)oc1` (centres undefined), the TGI in the experiment on P388/ADR leukemia is above 500 µM; with P388 leukemia, 500 µM; with HOP-18 NSCLC, 0.371 µM; in the experiment with SN12K1 renal, 0.108 µM.
Take `CCNc1nc2c(=O)n(C)c(=O)n(C)c2s1`: the TGI with HOP-18 NSCLC, with LXFL 529 NSCLC and in the experiment on ACHN renal was above 100 µM in each case.
Turning to `ClCc1nnc2n1-c1ccc(Cl)cc1SC2`, the TGI was above 25.2 µM in the experiment with P388/ADR leukemia, 4.24 µM in the experiment with P388 leukemia, 13.2 µM with HOP-18 NSCLC and 7.86 µM with SN12K1 renal.
